Laboratory results from ChEMBL document CHEMBL1201862, “PubChem BioAssay data set” (2004).
The source made the active and inactive calls.

Experiments:
Melanocortin receptor 4 = Melanocortin receptor 4 (Homo sapiens, UniProt P32245); format: functional, cell-based;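 note: Cell-based assay with luminescence read-out, confirmatory dose-response testing for agonist activity of biased ligands at MC4R; human U2OS cells with tagged receptor and beta-arrestin; potency of agonists that increase receptor coupling to beta-arrestin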
[1] = Trypanosoma cruzi growth suppression in host cells – NIH3T3 host cells, beta-gal luminescence, confirmation (AID 2044); format: functional, cell-based;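 note: intracellular parasites grown in NIH/3T3 mouse fibroblasts as host cells; luminescent beta-galactosidase reporter signal from transgenic T. cruzi replicating inside host cells; inhibitors lower the luminescence signal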
[2] = NIH3T3 cell viability loss – ATP luminescence, mouse fibroblasts, counter-screen, dose response (AID 2010); format: functional, cell-based;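 note: cells exposed to compound for about 90 hours before reading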
Vero = experiment: cells; format: functional; settings: Chlorocebus sabaeus
[3] = bead-based luminescence quenchers, dual-tagged ARNT – biochemical, AlphaScreen, cherry-pick, artefact control for ARNT-TACC3 interaction inhibitor project, dose response (AID 651705); format: functional;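 note: AlphaScreen bead proximity signal that flags compounds interfering with the detection technology; potency reflects signal decrease which marks the compound as an assay artifact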
[4] = inhibition of ARNT PAS-B/TACC3 complex formation – biochemical, AlphaScreen, cherry-picked samples, confirmation (AID 651703); format: functional, Homo sapiens;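 note: His-tagged ARNT PAS-B domain paired with GST-TACC3 E629A dimer coactivator fragment; potency of inhibitors that break up the complex and lower AlphaScreen signal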
[5] = biological target: T1, DNA repair protein RAD52 homolog (Homo sapiens, UniProt P43351); format: functional, biochemical
T1 sequence (P43351 whole entry): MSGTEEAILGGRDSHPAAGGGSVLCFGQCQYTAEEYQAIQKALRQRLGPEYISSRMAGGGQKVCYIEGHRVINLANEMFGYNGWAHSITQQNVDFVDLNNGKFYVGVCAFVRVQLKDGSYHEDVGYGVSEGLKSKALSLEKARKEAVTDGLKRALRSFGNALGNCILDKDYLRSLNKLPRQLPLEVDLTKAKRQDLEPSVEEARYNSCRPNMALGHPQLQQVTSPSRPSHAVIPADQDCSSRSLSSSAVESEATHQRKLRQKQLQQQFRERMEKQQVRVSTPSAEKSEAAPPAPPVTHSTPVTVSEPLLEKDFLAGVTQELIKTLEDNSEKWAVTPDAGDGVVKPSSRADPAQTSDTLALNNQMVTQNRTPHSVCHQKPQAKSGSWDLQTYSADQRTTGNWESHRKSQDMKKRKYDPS

[6] = biological target: T2, Aryl hydrocarbon receptor (Homo sapiens, UniProt P35869); settings: Potency;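 note: confirmatory quantitative high-throughput screen measuring activation of the AhR signaling pathway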
T2 sequence (P35869 whole entry): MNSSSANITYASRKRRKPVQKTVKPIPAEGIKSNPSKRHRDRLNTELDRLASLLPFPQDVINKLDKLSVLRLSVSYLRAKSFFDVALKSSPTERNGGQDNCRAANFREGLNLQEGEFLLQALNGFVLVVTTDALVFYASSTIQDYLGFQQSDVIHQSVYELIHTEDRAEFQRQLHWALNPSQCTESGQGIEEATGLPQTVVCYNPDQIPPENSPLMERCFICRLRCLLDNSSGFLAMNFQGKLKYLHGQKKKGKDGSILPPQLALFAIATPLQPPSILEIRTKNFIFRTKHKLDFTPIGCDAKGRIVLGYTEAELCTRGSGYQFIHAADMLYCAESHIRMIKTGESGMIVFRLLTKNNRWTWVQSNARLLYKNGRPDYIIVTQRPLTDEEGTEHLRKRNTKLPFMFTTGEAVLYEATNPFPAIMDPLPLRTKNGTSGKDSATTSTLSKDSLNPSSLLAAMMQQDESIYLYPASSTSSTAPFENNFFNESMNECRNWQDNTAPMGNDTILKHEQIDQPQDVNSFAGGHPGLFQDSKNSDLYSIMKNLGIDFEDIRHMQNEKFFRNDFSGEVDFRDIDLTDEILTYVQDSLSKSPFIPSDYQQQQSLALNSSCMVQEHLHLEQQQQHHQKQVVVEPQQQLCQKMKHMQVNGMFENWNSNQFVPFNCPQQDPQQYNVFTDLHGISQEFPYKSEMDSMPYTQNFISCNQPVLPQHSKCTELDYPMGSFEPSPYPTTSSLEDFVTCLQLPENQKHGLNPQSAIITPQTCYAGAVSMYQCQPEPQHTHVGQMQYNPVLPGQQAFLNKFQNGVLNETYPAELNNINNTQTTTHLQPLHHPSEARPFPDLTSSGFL

[7] = biological target: T3, Sentrin-specific protease 8 (Homo sapiens, UniProt Q96LD8); experiment: inhibition of human SENP8 cleavage activity – biochemical, luminescence, SAR follow-up (AID 504501); format: functional
T3 sequence (Q96LD8 whole entry): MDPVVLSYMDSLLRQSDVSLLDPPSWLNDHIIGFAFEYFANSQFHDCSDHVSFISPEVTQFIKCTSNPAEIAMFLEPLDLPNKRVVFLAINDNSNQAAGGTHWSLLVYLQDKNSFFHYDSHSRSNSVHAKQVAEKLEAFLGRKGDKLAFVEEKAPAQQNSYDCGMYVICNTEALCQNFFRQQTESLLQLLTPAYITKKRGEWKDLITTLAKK

Caspase-3 = biological target: T4, Caspase-3 (Homo sapiens, UniProt P42574); experiment: SAR Analysis of small molecule inhibitors of Sentrin-specific proteases (SENPs) using a Caspase-3 Selectivity assay. [Related pubchem assays (depositor defined):AID2540, AID2599, AID434973, AID489001]; format: functional
T4 sequence (P42574 whole entry): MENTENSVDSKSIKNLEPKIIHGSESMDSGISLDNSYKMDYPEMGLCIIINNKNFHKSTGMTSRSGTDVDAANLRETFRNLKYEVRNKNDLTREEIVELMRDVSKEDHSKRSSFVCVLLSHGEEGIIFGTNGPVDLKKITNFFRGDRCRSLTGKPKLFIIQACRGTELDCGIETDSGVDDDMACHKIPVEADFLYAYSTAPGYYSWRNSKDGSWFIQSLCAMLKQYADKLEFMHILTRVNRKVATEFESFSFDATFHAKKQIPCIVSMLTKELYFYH

[8] = biological target: T5, Sentrin-specific protease 6 (Homo sapiens, UniProt Q9GZR1); experiment: SAR Analysis of small molecule inhibitors of Sentrin-specific protease 6 (SENP6) using a Luminescent assay. [Related pubchem assays (depositor defined):AID2582, AID2599]; format: functional
T5 sequence (Q9GZR1 whole entry): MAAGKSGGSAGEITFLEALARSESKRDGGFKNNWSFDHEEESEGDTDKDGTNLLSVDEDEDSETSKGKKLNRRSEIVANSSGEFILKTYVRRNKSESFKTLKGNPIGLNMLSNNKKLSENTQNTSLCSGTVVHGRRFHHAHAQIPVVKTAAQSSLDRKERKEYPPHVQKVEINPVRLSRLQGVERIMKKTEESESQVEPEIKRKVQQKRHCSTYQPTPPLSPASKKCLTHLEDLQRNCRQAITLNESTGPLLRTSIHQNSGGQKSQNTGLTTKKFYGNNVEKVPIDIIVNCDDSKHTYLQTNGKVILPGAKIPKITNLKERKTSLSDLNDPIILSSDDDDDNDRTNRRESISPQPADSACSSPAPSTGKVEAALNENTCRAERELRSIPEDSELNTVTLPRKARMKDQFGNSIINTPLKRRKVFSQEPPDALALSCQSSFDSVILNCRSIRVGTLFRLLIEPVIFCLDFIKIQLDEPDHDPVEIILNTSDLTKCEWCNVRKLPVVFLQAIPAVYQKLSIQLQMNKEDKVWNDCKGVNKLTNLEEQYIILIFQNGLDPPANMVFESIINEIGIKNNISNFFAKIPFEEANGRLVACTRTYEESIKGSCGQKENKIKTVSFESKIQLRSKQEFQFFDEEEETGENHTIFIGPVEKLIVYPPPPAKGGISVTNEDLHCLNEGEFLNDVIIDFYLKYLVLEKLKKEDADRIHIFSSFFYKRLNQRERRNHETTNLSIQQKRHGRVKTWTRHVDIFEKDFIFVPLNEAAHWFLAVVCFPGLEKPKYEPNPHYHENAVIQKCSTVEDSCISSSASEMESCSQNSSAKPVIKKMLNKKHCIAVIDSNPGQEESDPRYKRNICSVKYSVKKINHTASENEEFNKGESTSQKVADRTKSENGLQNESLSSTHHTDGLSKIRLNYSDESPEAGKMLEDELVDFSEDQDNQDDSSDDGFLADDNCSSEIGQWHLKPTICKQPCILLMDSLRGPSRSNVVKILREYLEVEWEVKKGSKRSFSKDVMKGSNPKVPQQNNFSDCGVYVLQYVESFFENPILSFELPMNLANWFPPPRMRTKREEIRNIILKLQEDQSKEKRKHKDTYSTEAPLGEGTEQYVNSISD

[9] = biological target: T6, Sentrin-specific protease 7 (Homo sapiens, UniProt Q9BQF6); experiment: inhibition of human SENP7 cleavage activity – biochemical, luminescence, SAR follow-up (AID 504497); format: functional
T6 sequence (Q9BQF6 whole entry): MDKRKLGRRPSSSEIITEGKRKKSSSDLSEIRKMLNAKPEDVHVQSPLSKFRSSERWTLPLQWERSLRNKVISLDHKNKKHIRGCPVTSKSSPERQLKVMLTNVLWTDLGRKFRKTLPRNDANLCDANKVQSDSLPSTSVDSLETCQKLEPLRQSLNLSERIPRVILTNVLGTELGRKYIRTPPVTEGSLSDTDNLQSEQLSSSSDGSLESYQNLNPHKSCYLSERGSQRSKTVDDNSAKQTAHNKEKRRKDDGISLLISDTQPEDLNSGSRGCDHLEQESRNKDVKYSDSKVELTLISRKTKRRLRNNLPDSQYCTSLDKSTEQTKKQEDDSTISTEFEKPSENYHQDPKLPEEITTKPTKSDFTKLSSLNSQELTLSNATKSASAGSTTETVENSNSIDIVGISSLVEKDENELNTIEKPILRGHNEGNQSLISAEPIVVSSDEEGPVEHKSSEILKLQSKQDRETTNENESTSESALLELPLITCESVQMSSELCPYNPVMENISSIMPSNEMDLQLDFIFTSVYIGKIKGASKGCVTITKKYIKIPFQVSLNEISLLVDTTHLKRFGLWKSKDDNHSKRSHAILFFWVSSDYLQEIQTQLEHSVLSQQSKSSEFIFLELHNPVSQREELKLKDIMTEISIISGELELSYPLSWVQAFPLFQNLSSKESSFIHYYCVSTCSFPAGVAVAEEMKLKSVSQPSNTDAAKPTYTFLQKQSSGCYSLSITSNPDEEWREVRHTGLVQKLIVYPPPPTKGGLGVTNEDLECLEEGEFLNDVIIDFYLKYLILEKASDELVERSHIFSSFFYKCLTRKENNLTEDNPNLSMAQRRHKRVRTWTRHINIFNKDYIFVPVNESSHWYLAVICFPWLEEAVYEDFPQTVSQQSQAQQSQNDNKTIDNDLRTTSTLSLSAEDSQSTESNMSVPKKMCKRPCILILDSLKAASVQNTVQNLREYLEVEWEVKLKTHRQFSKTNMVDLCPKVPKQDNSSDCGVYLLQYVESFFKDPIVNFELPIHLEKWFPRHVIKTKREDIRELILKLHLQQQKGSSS

Leucine aminopeptidase = biological target: T7, Leucine aminopeptidase (Plasmodium falciparum 3D7, UniProt Q8IL11); experiment: P. falciparum M17LAP inhibitors, primary screen, biochemical, fluorogenic H-Leu-NHMec substrate, 1536-well (AID 1619); format: functional
T7 sequence (Q8IL11 whole entry): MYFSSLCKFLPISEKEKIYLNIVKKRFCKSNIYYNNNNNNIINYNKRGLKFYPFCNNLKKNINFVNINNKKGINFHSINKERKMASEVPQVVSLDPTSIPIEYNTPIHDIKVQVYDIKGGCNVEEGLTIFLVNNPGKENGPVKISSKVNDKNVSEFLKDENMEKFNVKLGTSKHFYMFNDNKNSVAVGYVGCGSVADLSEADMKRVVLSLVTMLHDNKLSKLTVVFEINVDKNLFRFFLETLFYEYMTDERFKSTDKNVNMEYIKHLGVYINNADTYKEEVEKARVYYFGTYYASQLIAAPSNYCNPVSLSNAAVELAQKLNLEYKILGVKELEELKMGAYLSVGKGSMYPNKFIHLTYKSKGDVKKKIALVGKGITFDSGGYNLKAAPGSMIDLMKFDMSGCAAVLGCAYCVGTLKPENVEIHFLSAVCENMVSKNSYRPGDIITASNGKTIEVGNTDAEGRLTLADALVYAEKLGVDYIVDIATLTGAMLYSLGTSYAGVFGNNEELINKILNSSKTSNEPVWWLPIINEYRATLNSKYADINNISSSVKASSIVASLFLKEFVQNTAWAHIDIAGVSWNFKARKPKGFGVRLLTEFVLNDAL

Cytochrome P450 2C19 = Cytochrome P450 2C19 (Homo sapiens, UniProt P33261); experiment: Cytochrome panel assay with activity outcomes. Panel member name: p450-cyp2c19 Compounds with AC50 equal or less than 10 uM are considered active; format: functional; settings: read-out: AC50
[10] = biological target: T8, Mitochondrial peptide methionine sulfoxide reductase (Bos taurus, UniProt P54149); experiment: Absorbance-based biochemical high throughput dose response assay for activators of Methionine sulfoxide reductase A (MsrA).; format: functional
T8 sequence (P54149 whole entry): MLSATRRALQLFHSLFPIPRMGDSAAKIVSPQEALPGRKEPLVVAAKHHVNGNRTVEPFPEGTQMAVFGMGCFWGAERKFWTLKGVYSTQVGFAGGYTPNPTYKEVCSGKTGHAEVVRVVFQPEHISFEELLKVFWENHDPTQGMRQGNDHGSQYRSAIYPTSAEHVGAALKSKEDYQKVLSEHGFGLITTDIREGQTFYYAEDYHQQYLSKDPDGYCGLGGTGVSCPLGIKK

Cytochrome P450 2C9 = Cytochrome P450 2C9 (Homo sapiens, UniProt P11712)
Chain of Cytochrome P450 2C9 (P11712 whole entry): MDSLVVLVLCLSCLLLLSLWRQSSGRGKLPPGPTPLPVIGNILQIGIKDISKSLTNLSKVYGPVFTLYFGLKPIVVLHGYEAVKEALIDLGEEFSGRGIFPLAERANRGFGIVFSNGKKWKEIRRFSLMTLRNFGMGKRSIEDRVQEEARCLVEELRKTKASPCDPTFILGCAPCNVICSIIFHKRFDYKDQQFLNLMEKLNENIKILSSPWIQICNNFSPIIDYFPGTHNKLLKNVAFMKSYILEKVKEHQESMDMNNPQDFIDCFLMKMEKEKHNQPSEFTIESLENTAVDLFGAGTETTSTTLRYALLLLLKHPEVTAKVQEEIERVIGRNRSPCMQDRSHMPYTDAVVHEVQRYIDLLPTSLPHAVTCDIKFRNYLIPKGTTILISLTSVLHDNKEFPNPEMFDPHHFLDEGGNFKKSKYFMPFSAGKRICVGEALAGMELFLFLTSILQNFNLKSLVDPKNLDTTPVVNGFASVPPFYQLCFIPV

Chain of Cytochrome P450 2C19 (P33261 whole entry): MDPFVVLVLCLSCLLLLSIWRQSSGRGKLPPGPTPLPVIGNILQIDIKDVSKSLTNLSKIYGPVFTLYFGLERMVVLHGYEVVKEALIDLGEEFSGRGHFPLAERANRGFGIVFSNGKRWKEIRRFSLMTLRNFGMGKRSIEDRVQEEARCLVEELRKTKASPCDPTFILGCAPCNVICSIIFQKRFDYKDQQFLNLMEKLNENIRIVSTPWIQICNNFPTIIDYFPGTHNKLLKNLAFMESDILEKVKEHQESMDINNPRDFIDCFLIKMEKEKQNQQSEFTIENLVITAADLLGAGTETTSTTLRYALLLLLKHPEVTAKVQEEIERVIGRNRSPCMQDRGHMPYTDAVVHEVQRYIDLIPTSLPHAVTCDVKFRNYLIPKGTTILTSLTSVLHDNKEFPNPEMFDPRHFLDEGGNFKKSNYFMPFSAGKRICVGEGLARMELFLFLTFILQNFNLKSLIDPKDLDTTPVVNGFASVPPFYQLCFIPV
Chain of Melanocortin receptor 4 (P32245 whole entry): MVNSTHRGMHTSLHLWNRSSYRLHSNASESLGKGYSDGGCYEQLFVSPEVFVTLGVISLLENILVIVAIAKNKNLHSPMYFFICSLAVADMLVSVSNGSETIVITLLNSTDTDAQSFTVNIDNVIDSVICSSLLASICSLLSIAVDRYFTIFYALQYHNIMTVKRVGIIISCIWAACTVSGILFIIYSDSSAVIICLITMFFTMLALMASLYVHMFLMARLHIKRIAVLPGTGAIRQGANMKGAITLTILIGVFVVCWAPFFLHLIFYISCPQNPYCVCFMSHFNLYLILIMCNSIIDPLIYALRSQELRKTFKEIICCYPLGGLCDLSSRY

For `O=C(NC(c1ccc(Cl)cc1)c1ccccn1)C1CCN(CCOc2ccc(Cl)cc2Cl)CC1` (stereo unspecified), the EC50 (Melanocortin receptor 4) was > 89.2 µM (inactive).
In the case of `COc1cc2nc(Nc3ccc(C)c(C)c3)nc(N)c2cc1OC`, the EC50 [1] is reported as 0.559 µM (active), the EC50 [2] is reported as > 30 µM (not active) and the CC50 (Vero) is reported as 14.8 µM (active). The AC50 [3] was 89.2 µM (active), the AC50 [4] was 74.1 µM (active) and the AC50 [5] was 5.47 µM (active).
With `COP(=O)(OC)SCn1c(=O)oc2cc(Cl)cnc21` [AZAMETHIPHOS] the AC50 [6] was 44.7 µM (inconclusive).
In the case of `CS(=O)(=O)c1ccc(N/N=C/c2c[nH]c3ccccc23)cc1`, the IC50 [7] is reported as > 99 µM (inactive), the IC50 (Caspase-3) is reported as > 99 µM (inactive) and the IC50 [8] is reported as > 99 µM (inactive). For the same molecule, the IC50 [9] was > 99 µM (inactive).
With `COc1ccc(C(=O)Nc2ccc3ccccc3c2)cc1Br` the IC50 [7] was > 99 µM (inactive), the IC50 (Caspase-3) was > 99 µM (inactive) and the IC50 [8] was > 99 µM (inactive). The IC50 [9] was > 99 µM (inactive).
In the case of `Sc1nc2cc(Cl)ccc2s1`, the IC50 (Leucine aminopeptidase) is reported as 14.8 µM (active), the AC50 (Cytochrome P450 2C19) is reported as 11.2 µM (inconclusive) and the EC50 [10] is reported as > 104 µM (inactive). For the same molecule, the AC50 (Cytochrome P450 2C9) was 39.8 µM (inconclusive).
For `Cc1ccc(C)c2nc3sc(C(=O)N4CCOCC4)c(N)c3cc12`, the EC50 [10] was > 104 µM (inactive).
